According to US20260001928A1 (CORTERIA PHARMACEUTICALS, priority 2022, published 2026):
*1 amine or outer side, *2 acyl side, *3 side chain or, on linkers, in order; H or OH if unused. Where a SMILES comes first, the peptide text is derived from it. Side-chain parts run from the residue outwards. [ ]: non-standard residue; d: D form. The star is where a group is joined. C20 diacid = O=C(O)CCCCCCCCCCCCCCCCCCC(=O)*; C18 diacid = O=C(O)CCCCCCCCCCCCCCCCC(=O)*; C16 diacid = O=C(O)CCCCCCCCCCCCCCC(=O)*; γGlu = O=C(O)[C@H](CCC(=O)[*:2])N[*:1]; C14 diacid = O=C(O)CCCCCCCCCCCCC(=O)*; NMeI = CC[C@H](C)[C@H](NC)C(=O)O; Pentanoyl = CCCCC(=O)*; Ac3c = NC1(C(=O)O)CC1; Aib = CC(C)(N)C(=O)O

Assays:
CFR1R receptor = molecular target: T1, CFR1R receptor (Homo sapiens, UniProt P34998); assay: Activity at anti-target CFR1R receptor, cAMP assay in CRF1R-overexpression CHO-K1 cells; format: cell-based; conditions: 100% = Sauvagine at 100 nM; for EC50: cAMP
T1 construct: host or cells: CHO-K1 (clone 2)
T1 sequence (P34998 24-415): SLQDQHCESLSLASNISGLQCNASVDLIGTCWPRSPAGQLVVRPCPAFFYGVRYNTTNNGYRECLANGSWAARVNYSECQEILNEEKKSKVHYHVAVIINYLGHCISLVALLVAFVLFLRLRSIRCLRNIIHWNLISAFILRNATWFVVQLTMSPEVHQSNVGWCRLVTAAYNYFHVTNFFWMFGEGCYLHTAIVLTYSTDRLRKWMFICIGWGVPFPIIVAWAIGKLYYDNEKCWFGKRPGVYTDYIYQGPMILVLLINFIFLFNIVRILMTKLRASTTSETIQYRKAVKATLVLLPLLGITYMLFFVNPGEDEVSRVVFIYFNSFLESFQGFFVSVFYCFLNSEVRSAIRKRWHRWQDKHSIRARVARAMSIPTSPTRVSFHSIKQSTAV
Procedure, shortened: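 Uses frozen stocks of CHO-K1 clone 2 cells overexpressing human CRF1R, plated at 4000 cells/well final, with cAMP measured by the same protocol as the TeloHAEC line. Full-activation control: 100 nM Sauvagine.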

human CRF2a receptor = molecular target: T2, human CRF2a receptor (Homo sapiens, UniProt Q13324); assay: Activity at human CRF2a receptor, cAMP functional assay in TeloHEAC cells; format: cell-based; conditions: TeloHEAC cells stably expressing human CRF2a receptor, relative to urocortin 2 (100 nM = 100%)
T2 construct: expressed in transfected cells; host or cells: TeloHEAC cells
T2 sequence (Q13324 1-411): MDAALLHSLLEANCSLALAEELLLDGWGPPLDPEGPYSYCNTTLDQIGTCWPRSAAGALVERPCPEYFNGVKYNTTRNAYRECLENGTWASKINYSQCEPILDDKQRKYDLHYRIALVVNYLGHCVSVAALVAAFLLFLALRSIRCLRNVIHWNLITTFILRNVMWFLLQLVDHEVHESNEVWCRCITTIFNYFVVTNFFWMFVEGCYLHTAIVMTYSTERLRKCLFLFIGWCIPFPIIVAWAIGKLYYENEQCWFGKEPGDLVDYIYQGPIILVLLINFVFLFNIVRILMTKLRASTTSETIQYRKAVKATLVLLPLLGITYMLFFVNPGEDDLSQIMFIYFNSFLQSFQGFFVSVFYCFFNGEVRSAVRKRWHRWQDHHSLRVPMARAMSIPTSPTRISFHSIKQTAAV
Procedure, shortened: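 TeloHEAC cells stably expressing human CRF2a (10000 cells/well) were treated with 16-point 1:2 compound dilutions in HBSS/20 mM HEPES with IBMX for 30 min at 37° C. cAMP was read by HTRF (665/620 nm ratio). EC50 was the concentration giving 50% activation, with 100 nM urocortin 2 set as 100%.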

Emax (% I) (CFR1R receptor)	EC50 (CFR1R receptor) [nM]	EC50 (human CRF2a receptor) [nM]	SMILES
0	> 250	0.49	CC[C@H](C)[C@H](NC(C)=O)C(=O)N[C@H](C(=O)N[C@@H](CC(C)C)C(=O)N[C@@H](CO)C(=O)N[C@@H](CC(C)C)C(=O)N[C@@H](CC(=O)O)C(=O)N[C@@H](C(=O)N1CCC[C@H]1C(=O)N[C@H](C(=O)N[C@@H](CCCCN)C(=O)N[C@@H](CC(C)C)C(=O)N[C@@H](CCCCNC(=O)CC[C@H](NC(=O)CCCCCCCCCCCCCCC(=O)O)C(=O)O)C(=O)N[C@@H](CCCCN)C(=O)N[C@H](C(=O)N[C@@H](CC(C)C)C(=O)N[C@@H](CC(C)C)C(=O)N[C@@H](CCC(=O)O)C(=O)N[C@@H](CCC(N)=O)C(=O)N[C@@H](CCC(=O)O)C(=O)N[C@@H](CCCCN)C(=O)N[C@@H](CCC(N)=O)C(=O)N[C@@H](CCCCN)C(=O)NC(C)(C)C(=O)N[C@@H](CCC(N)=O)C(=O)N[C@@H](CCCNC(=N)N)C(=O)N[C@@H](CCC(=O)O)C(=O)N[C@@H](CCC(N)=O)C(=O)N[C@@H](C)C(=O)N[C@@H](CCC(=O)O)C(=O)N[C@H](C(=O)N[C@@H](CC(N)=O)C(=O)NC(C)(C)C(=O)N[C@@H](CCC(N)=O)C(=O)N[C@H](C(=O)N[C@@H](CC(C)C)C(=O)N[C@@H](C)C(=O)N[C@@H](CCC(N)=O)C(=O)N[C@H](C(N)=O)C(C)C)[C@@H](C)CC)[C@@H](C)O)[C@@H](C)CC)[C@@H](C)CC)C(C)C)C(C)C [compound 162] (Ac-IVLSLD[dV]PIKLK([γGlu-C16 diacid])KILLEQEKQK[Aib]QREQAETN[Aib]QILAQV-NH2)
8	> 250	0.99	CC[C@H](C)[C@H](NC)C(=O)N[C@H](C(=O)N[C@@H](CC(C)C)C(=O)N[C@@H](CO)C(=O)N[C@@H](CC(C)C)C(=O)N[C@@H](CC(=O)O)C(=O)N[C@@H](C(=O)N1CCC[C@H]1C(=O)N[C@H](C(=O)N[C@@H](CCCCN)C(=O)N[C@@H](CC(C)C)C(=O)N[C@@H](CCCCNC(=O)CC[C@H](NC(=O)CCCCCCCCCCCCC(=O)O)C(=O)O)C(=O)N[C@@H](CCCCN)C(=O)N[C@H](C(=O)N[C@@H](CC(C)C)C(=O)N[C@@H](CC(C)C)C(=O)N[C@@H](CCC(=O)O)C(=O)N[C@@H](CCC(N)=O)C(=O)N[C@@H](CCC(=O)O)C(=O)N[C@@H](CCCCN)C(=O)N[C@@H](CCC(N)=O)C(=O)N[C@@H](CCCCN)C(=O)N[C@@H](C)C(=O)N[C@@H](CCC(N)=O)C(=O)N[C@@H](CCCNC(=N)N)C(=O)N[C@@H](CCC(=O)O)C(=O)N[C@@H](CCC(N)=O)C(=O)N[C@@H](C)C(=O)N[C@@H](CCC(=O)O)C(=O)N[C@H](C(=O)N[C@@H](CC(N)=O)C(=O)NC(C)(C)C(=O)N[C@@H](CCC(N)=O)C(=O)N[C@H](C(=O)N[C@@H](CC(C)C)C(=O)N[C@@H](C)C(=O)N[C@@H](CCC(N)=O)C(=O)N[C@H](C(N)=O)C(C)C)[C@@H](C)CC)[C@@H](C)O)[C@@H](C)CC)[C@@H](C)CC)C(C)C)C(C)C [compound 176] (H-[NMeI]VLSLD[dV]PIKLK([γGlu-C14 diacid])KILLEQEKQKAQREQAETN[Aib]QILAQV-NH2)
79		0.18	CCCCC(=O)N[C@H](C(=O)N[C@@H](CC(C)C)C(=O)N[C@@H](CO)C(=O)N[C@@H](CC(C)C)C(=O)N[C@@H](CC(=O)O)C(=O)N[C@@H](C(=O)N1CCC[C@H]1C(=O)N[C@H](C(=O)N[C@@H](CCCCN)C(=O)N[C@@H](CC(C)C)C(=O)N[C@@H](CCCCNC(=O)CC[C@H](NC(=O)CCCCCCCCCCCCCCCCCCC(=O)O)C(=O)O)C(=O)N[C@@H](CCCCN)C(=O)N[C@H](C(=O)N[C@@H](CC(C)C)C(=O)N[C@@H](CC(C)C)C(=O)N[C@@H](CCC(=O)O)C(=O)N[C@@H](CCC(N)=O)C(=O)N[C@@H](CCC(=O)O)C(=O)N[C@@H](C)C(=O)N[C@@H](CCC(N)=O)C(=O)N[C@@H](CCCCN)C(=O)N[C@@H](CCCCN)C(=O)N[C@@H](CCC(N)=O)C(=O)N[C@@H](CCCNC(=N)N)C(=O)N[C@@H](CCC(=O)O)C(=O)N[C@@H](CCC(N)=O)C(=O)N[C@@H](C)C(=O)N[C@@H](CCC(=O)O)C(=O)N[C@H](C(=O)N[C@@H](CC(N)=O)C(=O)NC(C)(C)C(=O)N[C@@H](CCC(N)=O)C(=O)N[C@H](C(=O)N[C@@H](CC(C)C)C(=O)N[C@@H](C)C(=O)N[C@@H](CCC(N)=O)C(=O)N[C@H](C(N)=O)C(C)C)[C@@H](C)CC)[C@@H](C)O)[C@@H](C)CC)[C@@H](C)CC)C(C)C)C(C)C [compound 221] (Pentanoyl-VLSLD[dV]PIKLK([γGlu-C20 diacid])KILLEQEAQKKQREQAETN[Aib]QILAQV-NH2)
3	> 250	0.07	CC[C@H](C)[C@H](NC)C(=O)N[C@H](C(=O)N[C@@H](CC(C)C)C(=O)N[C@@H](CO)C(=O)N[C@@H](CC(C)C)C(=O)N[C@@H](CC(=O)O)C(=O)N[C@@H](C(=O)N1CCC[C@H]1C(=O)N[C@H](C(=O)N[C@@H](CCCCN)C(=O)N[C@@H](CC(C)C)C(=O)N[C@@H](CCCCNC(=O)CC[C@H](NC(=O)CCCCCCCCCCCCCCCCC(=O)O)C(=O)O)C(=O)N[C@@H](CCCCN)C(=O)N[C@H](C(=O)N[C@@H](CC(C)C)C(=O)N[C@@H](CC(C)C)C(=O)N[C@@H](CCC(=O)O)C(=O)N[C@@H](CCC(N)=O)C(=O)N[C@@H](CCC(=O)O)C(=O)N[C@@H](CCCCN)C(=O)N[C@@H](CCC(N)=O)C(=O)N[C@@H](CCCCN)C(=O)N[C@@H](CCCCN)C(=O)N[C@@H](CCC(N)=O)C(=O)N[C@@H](CCCNC(=N)N)C(=O)N[C@@H](CCC(=O)O)C(=O)N[C@@H](CCC(N)=O)C(=O)N[C@@H](C)C(=O)N[C@@H](CCC(=O)O)C(=O)N[C@H](C(=O)N[C@@H](CC(N)=O)C(=O)N[C@@H](CCC(=O)O)C(=O)N[C@@H](CCC(N)=O)C(=O)N[C@H](C(=O)N[C@@H](CC(C)C)C(=O)N[C@@H](C)C(=O)N[C@@H](CCC(N)=O)C(=O)N[C@H](C(N)=O)C(C)C)[C@@H](C)CC)[C@@H](C)O)[C@@H](C)CC)[C@@H](C)CC)C(C)C)C(C)C [compound 142] (H-[NMeI]VLSLD[dV]PIKLK([γGlu-C18 diacid])KILLEQEKQKKQREQAETNEQILAQV-NH2)
3	> 250	0.36	CC[C@H](C)[C@H](NC(C)=O)C(=O)N[C@H](C(=O)N[C@@H](CC(C)C)C(=O)N[C@@H](CO)C(=O)N[C@@H](CC(C)C)C(=O)N[C@@H](CC(=O)O)C(=O)N[C@@H](C(=O)N1CCC[C@H]1C(=O)N[C@H](C(=O)N[C@@H](CCCCN)C(=O)N[C@@H](CC(C)C)C(=O)N[C@@H](CCCCNC(=O)CC[C@H](NC(=O)CCCCCCCCCCCCCCC(=O)O)C(=O)O)C(=O)N[C@@H](CCCCN)C(=O)N[C@H](C(=O)N[C@@H](CC(C)C)C(=O)N[C@@H](CC(C)C)C(=O)N[C@@H](CCC(=O)O)C(=O)N[C@@H](CCC(N)=O)C(=O)N[C@@H](CCC(=O)O)C(=O)N[C@@H](CCCCN)C(=O)N[C@@H](CCC(N)=O)C(=O)N[C@@H](CCCCN)C(=O)N[C@@H](CCCCN)C(=O)N[C@@H](CCC(N)=O)C(=O)N[C@@H](CCCNC(=N)N)C(=O)N[C@@H](CCC(=O)O)C(=O)N[C@@H](CCC(N)=O)C(=O)N[C@@H](C)C(=O)N[C@@H](CCC(=O)O)C(=O)N[C@H](C(=O)N[C@@H](CC(N)=O)C(=O)NC1(C(=O)N[C@@H](CCC(N)=O)C(=O)N[C@H](C(=O)N[C@@H](CC(C)C)C(=O)N[C@@H](C)C(=O)N[C@@H](CCC(N)=O)C(=O)N[C@H](C(N)=O)C(C)C)[C@@H](C)CC)CC1)[C@@H](C)O)[C@@H](C)CC)[C@@H](C)CC)C(C)C)C(C)C [compound 61] (Ac-IVLSLD[dV]PIKLK([γGlu-C16 diacid])KILLEQEKQKKQREQAETN[Ac3c]QILAQV-NH2)
